Laboratory results published in the Kinase Knowledgebase extract (Sharma et al. 2016).

Target: ROCK2 (human) (UniProt O75116)
Experiment: Inhibition of ROCK2 Kinase Activity

Sequence of ROCK2 (human) (O75116 whole entry, looked up): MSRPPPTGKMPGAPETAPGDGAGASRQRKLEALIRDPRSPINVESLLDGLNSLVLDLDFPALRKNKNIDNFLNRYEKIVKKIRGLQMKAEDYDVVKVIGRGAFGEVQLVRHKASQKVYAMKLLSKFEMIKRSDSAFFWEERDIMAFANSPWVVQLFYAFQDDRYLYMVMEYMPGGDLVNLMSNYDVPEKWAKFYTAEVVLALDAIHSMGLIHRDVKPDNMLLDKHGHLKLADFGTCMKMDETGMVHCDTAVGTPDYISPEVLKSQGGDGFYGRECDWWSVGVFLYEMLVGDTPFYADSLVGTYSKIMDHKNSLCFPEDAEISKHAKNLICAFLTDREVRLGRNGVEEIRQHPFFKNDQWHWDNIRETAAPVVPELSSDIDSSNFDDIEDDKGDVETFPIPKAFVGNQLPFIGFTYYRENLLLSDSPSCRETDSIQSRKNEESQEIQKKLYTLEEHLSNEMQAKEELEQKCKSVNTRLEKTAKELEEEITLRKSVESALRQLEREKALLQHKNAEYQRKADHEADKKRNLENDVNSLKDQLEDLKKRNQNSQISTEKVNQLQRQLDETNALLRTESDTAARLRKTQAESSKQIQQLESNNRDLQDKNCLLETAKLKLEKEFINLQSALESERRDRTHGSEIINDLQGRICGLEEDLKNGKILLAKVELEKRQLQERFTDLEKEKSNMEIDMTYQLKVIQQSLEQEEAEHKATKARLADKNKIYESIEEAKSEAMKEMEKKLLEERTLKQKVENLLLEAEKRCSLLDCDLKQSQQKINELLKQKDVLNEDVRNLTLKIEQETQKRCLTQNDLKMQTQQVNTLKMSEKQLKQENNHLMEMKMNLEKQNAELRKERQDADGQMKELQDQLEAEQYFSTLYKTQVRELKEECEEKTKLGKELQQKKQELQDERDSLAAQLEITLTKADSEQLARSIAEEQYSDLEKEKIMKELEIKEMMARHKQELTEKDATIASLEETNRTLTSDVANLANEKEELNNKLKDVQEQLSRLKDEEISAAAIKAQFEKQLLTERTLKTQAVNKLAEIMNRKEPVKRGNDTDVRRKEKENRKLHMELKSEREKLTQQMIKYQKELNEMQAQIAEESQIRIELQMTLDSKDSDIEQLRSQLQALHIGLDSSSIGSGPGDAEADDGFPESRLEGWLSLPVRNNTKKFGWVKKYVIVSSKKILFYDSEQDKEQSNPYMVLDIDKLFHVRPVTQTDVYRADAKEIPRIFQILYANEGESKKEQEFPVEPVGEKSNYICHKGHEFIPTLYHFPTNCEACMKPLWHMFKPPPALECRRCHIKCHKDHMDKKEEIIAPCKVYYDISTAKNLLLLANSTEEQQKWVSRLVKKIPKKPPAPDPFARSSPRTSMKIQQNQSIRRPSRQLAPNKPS

| Compound | IC50 |
| --- | --- |
| O=C(NCc1nc(-c2ccncc2)n[nH]1)c1cccc(Cl)c1Cl | > 5 µM |
| CC(C)C(=O)Oc1ccc(C(=O)NCc2nc(-c3ccncc3)n[nH]2)c(O)c1 | ≤ 5 µM |
| O=C(NCc1nc(-c2c[nH]c3ncccc23)n[nH]1)c1ccc(OCc2ccccc2)cc1 | > 5 µM |
| O=C(C=Cc1ccc2c(c1)OCO2)NCc1nc(-c2ccncc2)n[nH]1 | > 5 µM |
| O=C(NCc1nc(-c2c[nH]c3ncccc23)n[nH]1)c1ccc(Br)cc1 | > 5 µM |
| O=C(NCc1nc(-c2c[nH]c3ncccc23)n[nH]1)C1CCc2ccccc21 (stereo unspecified) | > 5 µM |
| COc1cccc(C(=O)NCc2nc(-c3ccncc3)n[nH]2)c1 | > 5 µM |
| CN(Cc1nc(-c2ccncc2)n[nH]1)C(=O)c1cccs1 | > 5 µM |
| COc1cccc(O)c1C(=O)NCc1nc(-c2ccncc2)n[nH]1 | ≤ 5 µM |
| NC(=O)c1cc(-c2ccncc2)n[nH]1 | > 5 µM |
| Cc1ccc([N+](=O)[O-])c(C(=O)NCc2nc(-c3ccncc3)n[nH]2)c1 | > 5 µM |
| O=C(CCc1nc2ccccc2[nH]1)NCc1nc(-c2c[nH]c3ncccc23)n[nH]1 | > 5 µM |
| Cc1ccc(C(=O)CCC(=O)NCc2nc(-c3ccncc3)n[nH]2)cc1 | > 5 µM |
| O=C(NCc1nc(-c2c[nH]c3ncccc23)n[nH]1)C1=C(O)CC=CC([N+](=O)[O-])=C1 | > 5 µM |
| CC(C)(C)C(=O)Oc1ccc(C(=O)NCc2nc(-c3ccncc3)n[nH]2)cc1 | > 5 µM |
| O=C(NCc1nc(-c2c[nH]c3ncccc23)n[nH]1)c1ccccc1C(=O)c1ccc(O)cc1 | > 5 µM |
| O=C(Nc1cccc2c(-c3ccncc3)n[nH]c12)c1cccs1 | > 5 µM |
| O=C(Cc1ccccc1CO)NCc1nc(-c2c[nH]c3ncccc23)n[nH]1 | > 5 µM |
| CCC(=O)C(=O)NCc1nc(-c2ccncc2)n[nH]1 | > 5 µM |
| O=C(NCc1nc(-c2ccncc2)co1)c1ccc(O)cc1O | ≤ 5 µM |
| O=C(NCc1nc(-c2c[nH]c3ncccc23)n[nH]1)c1cc(Cl)c(O)c(Cl)c1 | > 5 µM |
| O=CC(=O)NCc1nc(-c2c[nH]c3ncccc23)n[nH]1 | > 5 µM |
| CC(=O)NC(Cc1ccc(O)cc1)C(=O)NCc1nc(-c2c[nH]c3ncccc23)n[nH]1 (stereo unspecified) | > 5 µM |

| Compound | IC50 |
| --- | --- |
| O=C(CCc1cccc(C(F)(F)F)c1)NCc1nc(-c2ccncc2)n[nH]1 | ≤ 5 µM |
| O=C(CCc1nc2ccccc2[nH]1)NCc1nc(-c2ccncc2)n[nH]1 | > 5 µM |
| CN(C=O)c1ccc(C(=O)NCc2nc(-c3c[nH]c4ncccc34)n[nH]2)cc1 | > 5 µM |
| O=C(NCc1nc(-c2c[nH]c3ncccc23)n[nH]1)c1cccc(Oc2ccccc2)c1 | > 5 µM |
| CC(C)c1cc(C(=O)NCc2nc(-c3c[nH]c4ncccc34)n[nH]2)c(O)c(C(C)C)c1 | > 5 µM |
| O=C(Cc1cccc(O)c1)NCc1nc(-c2c[nH]c3ncccc23)n[nH]1 | > 5 µM |
| O=C(NCc1nc(-c2c[nH]c3ncccc23)n[nH]1)c1cscn1 | > 5 µM |
| Cc1ccccc1CCC(=O)NCc1nc(-c2c[nH]c3ncccc23)n[nH]1 | > 5 µM |
| O=C(NCc1nc(-c2ccncc2)n[nH]1)c1cc([N+](=O)[O-])ccc1F | > 5 µM |
| COc1cccc(C(=O)NCc2nc(-c3ccncc3)n[nH]2)c1OC | > 5 µM |
| Cc1ccc(F)cc1C(=O)NCc1nc(-c2ccncc2)n[nH]1 | > 5 µM |
| CC(=O)Oc1ccccc1C(=O)NCc1nc(-c2ccncc2)n[nH]1 | ≤ 5 µM |
| O=C(NCc1nc(-c2c[nH]c3ncccc23)n[nH]1)c1ncc[nH]1 | > 5 µM |
| O=C(NCc1nc(-c2ccncc2)n[nH]1)c1ccccc1C(=O)c1ccc(F)cc1 | > 5 µM |
| CC(=O)Oc1cccc(C(=O)NCc2nc(-c3c[nH]c4ncccc34)n[nH]2)c1 | > 5 µM |
| COc1ccc(C(=O)NCc2nc(-c3c[nH]c4ncccc34)n[nH]2)cc1O | > 5 µM |
| O=C(NCc1nc(-c2c[nH]c3ncccc23)n[nH]1)c1cc(Cl)ccc1Cl | > 5 µM |
| O=C(Cc1ccccc1)NCc1nc(-c2c[nH]c3ncccc23)n[nH]1 | > 5 µM |
| O=C(NCc1nc(-c2c[nH]c3ncccc23)n[nH]1)c1ccccc1Cl | > 5 µM |
| O=C(NCc1nc(-c2c[nH]c3ncccc23)n[nH]1)c1cc(F)c(F)cc1[N+](=O)[O-] | > 5 µM |
| O=C(NCc1nc(-c2c[nH]c3ncccc23)n[nH]1)c1cc([N+](=O)[O-])ccc1F | > 5 µM |
| CC(=O)Oc1ccccc1C(=O)NCc1nc(-c2c[nH]c3ncccc23)n[nH]1 | > 5 µM |

More lines, now with the values ahead:

| IC50 | Compound |
| --- | --- |
| > 5 µM | O=C(C=Cc1ccccc1O)NCc1nc(-c2c[nH]c3ncccc23)n[nH]1 |
| > 5 µM | COc1ccccc1C=CC(=O)NCc1nc(-c2c[nH]c3ncccc23)n[nH]1 |
| > 5 µM | O=C(Cc1ccc(C(F)(F)F)cc1)NCc1nc(-c2c[nH]c3ncccc23)n[nH]1 |
| > 5 µM | Cc1ccccc1CC(=O)NCc1nc(-c2c[nH]c3ncccc23)n[nH]1 |
| > 5 µM | Cc1ccc(C)c(C(=O)NCc2nc(-c3c[nH]c4ncccc34)n[nH]2)c1 |
| > 5 µM | CC(C)(C)OC(=O)NC(Cc1ccccn1)C(=O)NCc1nc(-c2ccncc2)n[nH]1 (stereo unspecified) |
| > 5 µM | COc1cc(OC)cc(C(=O)NCc2nc(-c3c[nH]c4ncccc34)n[nH]2)c1 |
| > 5 µM | COC(=O)c1ccc(C(=O)NCc2nc(-c3c[nH]c4ncccc34)n[nH]2)cc1 |
| > 5 µM | O=C(NCc1nc(-c2c[nH]c3ncccc23)n[nH]1)c1ccccc1C(=O)c1ccc(F)cc1 |
| > 5 µM | O=C(NCc1nc(-c2ccncc2)n[nH]1)c1cccc(I)c1 |
| > 5 µM | Cc1cc(C(=O)NCc2nc(-c3c[nH]c4ncccc34)n[nH]2)n[nH]1 |
| > 5 µM | O=C(C=Cc1cccc(O)c1)NCc1nc(-c2ccncc2)n[nH]1 |
| > 5 µM | O=C(NCc1nc(-c2ccncc2)n[nH]1)c1cc(F)c(F)cc1[N+](=O)[O-] |
| > 5 µM | O=C(NCc1nc(-c2c[nH]c3ncccc23)n[nH]1)c1ccccc1Oc1ccccc1 |
| > 5 µM | CC(C)c1ccc(C(=O)NCc2nc(-c3ccncc3)n[nH]2)cc1 |
| > 5 µM | CCCc1ccc(C(=O)NCc2nc(-c3ccncc3)n[nH]2)cc1 |
| ≤ 5 µM | O=C(CCc1nc(-c2ccncc2)n[nH]1)c1ccc(O)cc1 |
| > 5 µM | COc1ccc(C(=O)NCc2nc(-c3ccncc3)n[nH]2)c(OC)c1OC |
| > 5 µM | O=C(Cc1ccc2c(c1)OCO2)NCc1nc(-c2ccncc2)n[nH]1 |
| > 5 µM | O=C(NCc1nc(-c2ccncc2)n[nH]1)c1cccc(Br)n1 |
| > 5 µM | O=C(NCc1nc(-c2ccncc2)n[nH]1)c1ccc(Cl)cc1O |

| IC50 | Compound |
| --- | --- |
| > 5 µM | O=C(NCc1nc(-c2ccncc2)n[nH]1)c1cc2cc(Cl)ccc2o1 |
| > 5 µM | CCC(C)C(NC(=O)OC(C)(C)C)C(=O)NCc1nc(-c2c[nH]c3ncccc23)n[nH]1 (stereo unspecified) |
| > 5 µM | O=C(NCc1nc(-c2c[nH]c3ncccc23)n[nH]1)c1cccc(F)c1F |
| > 5 µM | O=C(NCc1nc(-c2c[nH]c3ncccc23)n[nH]1)c1ccncc1Cl |
| > 5 µM | N#CCC(=O)NCc1nc(-c2c[nH]c3ncccc23)n[nH]1 |
| > 5 µM | O=C(NCc1nc(-c2ccncc2)n[nH]1)c1ccc2c(c1)OCO2 |
| > 5 µM | Cc1c(C(=O)NCc2nc(-c3c[nH]c4ncccc34)n[nH]2)oc2ccccc12 |
| > 5 µM | O=C(NCc1nc(-c2c[nH]c3ncccc23)n[nH]1)c1ccc(F)cc1Cl |
| > 5 µM | O=C(NCc1nc(-c2ccncc2)n[nH]1)c1cccnc1 |
| > 5 µM | O=C(NCc1nc(-c2ccncc2)n[nH]1)c1cc(F)c(Cl)cc1F |
| > 5 µM | O=C(NCc1nc(-c2c[nH]c3ncccc23)n[nH]1)c1cccc(Br)c1 |
| > 5 µM | O=C(NCc1nc(-c2ccncc2)n[nH]1)c1ccc(C(F)(F)F)cc1[N+](=O)[O-] |
| > 5 µM | CC(C)Oc1ccc(C(=O)NCc2nc(-c3ccncc3)n[nH]2)cc1 |
| > 5 µM | COc1ccc([N+](=O)[O-])c(C(=O)NCc2nc(-c3c[nH]c4ncccc34)n[nH]2)c1 |
| ≤ 5 µM | O=C(NCc1nc(-c2ccncc2)n[nH]1)c1cccs1 |
| > 5 µM | O=Cc1ccccc1C(=O)NCc1nc(-c2ccncc2)n[nH]1 |
| > 5 µM | O=C(NCc1nc(-c2c[nH]c3ncccc23)n[nH]1)c1ccc(Oc2ccccc2)cc1 |
| > 5 µM | O=C(NCc1nc(-c2c[nH]c3ncccc23)n[nH]1)c1cc(F)c(F)c(O)c1F |
| ≤ 5 µM | Clc1ccc(SCc2n[nH]c(-c3ccncc3)n2)cc1 |
| > 5 µM | O=C(CC1Cc2ccccc2C1)NCc1nc(-c2ccncc2)n[nH]1 |
| > 5 µM | COc1cc(Cl)ccc1C(=O)NCc1nc(-c2ccncc2)n[nH]1 |

| IC50 | Compound |
| --- | --- |
| > 5 µM | O=C(NCc1nc(-c2c[nH]c3ncccc23)n[nH]1)c1cc(O)ccc1O |
| > 5 µM | CS(=O)(=O)Nc1ccc(C(=O)NCc2nc(-c3ccncc3)n[nH]2)cc1 |
| > 5 µM | COc1cc(C(=O)NCc2nc(-c3c[nH]c4ncccc34)n[nH]2)cc(OC)c1O |
| > 5 µM | O=C(NCc1nc(-c2c[nH]c3ncccc23)n[nH]1)c1cc(O)c(O)c(O)c1 |
| ≤ 5 µM | O=C(NCc1nc(-c2ccncc2)n[nH]1)c1ccccc1O |
| > 5 µM | COc1cc(OC)c(C(=O)NCc2nc(-c3ccncc3)n[nH]2)cc1OC |
| > 5 µM | O=C(NCc1nc(-c2ccncc2)n[nH]1)c1ccc(I)cc1 |
| > 5 µM | O=C(NCc1nc(-c2ccncc2)n[nH]1)c1cncc(Br)c1 |
| > 5 µM | O=C(NCc1nc(-c2c[nH]c3ncccc23)n[nH]1)c1ccc2cccc(O)c2n1 |
| > 5 µM | O=C(NCc1nc(-c2c[nH]c3ncccc23)n[nH]1)c1cccnc1 |
| > 5 µM | COc1cc(C=CC(=O)NCc2nc(-c3ccncc3)n[nH]2)ccc1O |
| > 5 µM | CC(C)(C)OC(=O)NC(Cc1ccc(O)cc1)C(=O)NCc1nc(-c2c[nH]c3ncccc23)n[nH]1 (stereo unspecified) |
| > 5 µM | O=C(NCc1nc(-c2c[nH]c3ncccc23)n[nH]1)C1CCCN1C(=O)OCc1ccccc1 (stereo unspecified) |
| > 5 µM | O=C(NCc1nc(-c2ccncc2)n[nH]1)c1ccccc1Cl |
| > 5 µM | COc1ccc(C(=O)NCc2nc(-c3c[nH]c4ncccc34)n[nH]2)c(O)c1 |
| > 5 µM | COc1cc(OC)cc(C(=O)NCc2nc(-c3ccncc3)n[nH]2)c1 |
| > 5 µM | CC(C)(C)OC(=O)N1CC(O)CC1C(=O)NCc1nc(-c2ccncc2)n[nH]1 (stereo unspecified) |
| > 5 µM | Cc1ccccc1OCC(=O)NCc1nc(-c2c[nH]c3ncccc23)n[nH]1 |
| ≤ 5 µM | CC(C)(C)OC(=O)NC[C@H](NC(=O)c1ccc(O)cc1O)c1nc(-c2ccncc2)n[nH]1 |
